Among the data in patent publication US20240409557A1, “5,6-FUSED AND 6,6-FUSED BICYCLIC ALCOHOLS AND ETHERS AND COMPOSITIONS FOR USE AS 15-PROSTAGLANDIN DEHYDROGENASE MODULATORS” (AMGEN INC., priority 2023, published 2024) are IC50 values, retold here.

The target in assay [1] is T1, human recombinant 15-PGDH (Homo sapiens, UniProt P15428).
T1 sequence (P15428 1-266): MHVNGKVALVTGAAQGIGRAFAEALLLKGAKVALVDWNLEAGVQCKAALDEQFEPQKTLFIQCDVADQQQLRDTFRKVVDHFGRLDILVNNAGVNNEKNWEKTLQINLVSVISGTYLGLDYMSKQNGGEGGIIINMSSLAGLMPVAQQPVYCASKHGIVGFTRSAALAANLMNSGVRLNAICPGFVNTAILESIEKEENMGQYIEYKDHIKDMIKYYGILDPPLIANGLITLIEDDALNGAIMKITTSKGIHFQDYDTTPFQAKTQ
The assay is described as follows: Recombinant 15-PGDH enzymatic inhibition assay (PGDH-Lumi, NADH signal). Format: biochemical. To be noted: recombinant 15-PGDH; 15 min pre-incubation, 60 min reaction with PGE2 and NAD+, NADH signal. The method, boiled down: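 Buffer 50 mM Tris pH 7.5 with 0.01% Tween-20 and […]; compound, 22 two-fold dilutions, pre-incubated with enzyme 15 min before substrate.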

A further assay has as its target T2, 15-PGDH in A549 cells (Homo sapiens, UniProt P15428).
T2 construct: endogenous in cells; host or cells: A549
T2 sequence (P15428 1-266): T1 sequence (P15428 1-266)
As to the kind of experiment: A549 cellular 15-PGDH assay (PGE2 accumulation, HTRF). Format: cell-based. The note with it: interleukin-stimulated, inhibitor 24 hrs, PGE2 by competitive HTRF, read-out: A549 Cell Assay IC50. The text has this: This assay was used for the quantification of IL-13 induced Native Prostaglandin E2 (PGE2) produced by A549 cells (epithelial cells from lung carcinoma) in cell culture supernatants. […] PGE2 was detected in a competitive HTRF assay by using anti PGE2 antibody labeled with Europium cryptate, and PGE2 labeled with […]. The PGE2 present in the sample competes with the binding between the two HTRF detection solutions (reagents) and thereby prevents FRET from occurring. The specific signal is inversely proportional to the PGE2 concentration. From this binding data, IC50 values were calculated.

In the case of `Cn1cc2cc(-c3ccc4cc([C@H](O)[C@H]5CCC5(F)F)sc4n3)cnc2n1` (single isomer, unassigned) [Compound B94RR], the IC50 came to 0.34 nM in assay [1] and 0.661 nM at 15-PGDH in A549 cells.

For `CO[C@H]1C[C@](O)(c2cc3ccc(-c4cnc5nn(C)cc5c4)nc3s2)C1` [Compound C31C, cis-3-methoxy-1-(6-(2-methyl-2H-pyrazolo[3,4-b]pyridin-5-yl)thieno[2,3-b]pyridin-2-yl)cyclobutanol], the IC50 in assay [1] came to 0.356 nM; at 15-PGDH in A549 cells, 0.157 nM.

`Cn1cc2cc(-c3ccc4sc([C@@H](O)C5CC(F)(F)C5)cc4n3)cnc2n1` (single isomer, unassigned) [Compound B73S]: the IC50 came to 0.791 nM in assay [1] and 0.863 nM on 15-PGDH in A549 cells.

Consider `Cn1cc2cc(-c3ccc4nc(C5(O)CC(C)(C)C5)sc4n3)cnc2n1` [Compound C68, 3,3-dimethyl-1-(5-(2-methyl-2H-pyrazolo[3,4-b]pyridin-5-yl)[1,3]thiazolo[5,4-b]pyridin-2-yl)cyclobutanol], for which the values for the IC50 (in assay [1]; on 15-PGDH in A549 cells) were 0.58 nM and 0.361 nM, respectively.

As to `Cc1cn2ncc(-c3ccc4cc(C5(O)CC(F)(F)C5)sc4n3)cc2n1` [Compound C54, 3,3-difluoro-1-(6-(2-methylimidazo[1,2-b]pyridazin-7-yl)thieno[2,3-b]pyridin-2-yl)cyclobutanol], the IC50 in assay [1] was determined as 3.51 nM; at 15-PGDH in A549 cells it was 3.06 nM.

As to `Cn1cc2cc(-c3ccc4cc([C@@]5(O)CCC5(C)C)sc4n3)cnc2n1` (single isomer, unassigned) [Compound C65R], the IC50 was found to be 32.6 nM in assay [1] and 3.45 nM at 15-PGDH in A549 cells.

Take `Cn1cc2cc(-c3ccc4cc([C@H](O)C56CC(C(F)(F)F)(C5)C6)sc4n3)cnc2n1` (single isomer, unassigned) [Compound B91R]: the IC50 in assay [1] is 0.544 nM; at 15-PGDH in A549 cells, 1.09 nM.

`Cn1nnc2cc(-c3ncc4cc([C@]5(O)C[C@@H](C(F)F)C5)sc4n3)cnc21` [Compound C85C, cis-3-(difluoromethyl)-1-(2-(3-methyl-3H-[1,2,3]triazolo[4,5-b]pyridin-6-yl)thieno[2,3-d]pyrimidin-6-yl)cyclobutanol]: the IC50 in assay [1] is 2.89 nM; on 15-PGDH in A549 cells, 7.6 nM.

On to `Cn1cc2cc(-c3ccc4sc([C@H](O)C5CC(F)(F)C5)nc4n3)cnc2n1` (single isomer, unassigned) [Compound B74R], for which the IC50 in assay [1] was found to be 4.76 nM; at 15-PGDH in A549 cells, 0.494 nM.

In the case of `O[C@]1(c2cc3cnc(-c4cccnc4)nc3s2)C[C@H](C(F)(F)F)C1` [Compound C122C, cis-1-(2-(3-pyridinyl)thieno[2,3-d]pyrimidin-6-yl)-3-(trifluoromethyl)cyclobutanol], the IC50 in assay [1] stood at 6.83 nM; on 15-PGDH in A549 cells, 18.3 nM.

Turning to `Cn1cc2cc(-c3ncc4cc([C@@H](O)C5CC(F)(F)C5)sc4n3)cnc2n1` (single isomer, unassigned) [Compound B75S], the values for the IC50 (in assay [1]; at 15-PGDH in A549 cells) were 25.4 nM and 12.5 nM, respectively.

Take `COC[C@H]1C[C@](O)(c2cc3cnc(-c4cnc5nn(C)cc5c4)nc3s2)C1` [Compound C119C, cis-3-(methoxymethyl)-1-(2-(2-methyl-2H-pyrazolo[3,4-b]pyridin-5-yl)thieno[2,3-d]pyrimidin-6-yl)cyclobutanol]: the IC50 was found to be 2.8 nM in assay [1] and 6.66 nM at 15-PGDH in A549 cells.

Take `Cn1nc2cc(-c3ccc4cc([C@H](O)C5CCOCC5)sc4n3)cnc2n1` (single isomer, unassigned) [Compound B39R]: the figures for the IC50 (in assay [1]; on 15-PGDH in A549 cells) were 0.423 nM and 2.37 nM, respectively.

As to `Cn1cc2cc(-c3ccc4cc(C5(O)CC(F)(F)C5)sc4n3)ccc2n1` [Compound C49, 3,3-difluoro-1-(6-(2-methyl-2H-indazol-5-yl)thieno[2,3-b]pyridin-2-yl)cyclobutanol], the results for the IC50 (in assay [1]; at 15-PGDH in A549 cells) were 13.2 nM and 1.82 nM, respectively.

Turning to `Cn1cc2cc(-c3ccc4cc([C@@H](O)C5(C)CC(F)(F)C5)sc4n3)cnc2n1` (single isomer, unassigned) [Compound B86S], the IC50 in assay [1] is 286 nM; on 15-PGDH in A549 cells, 1.61 nM.

On to `Cn1nnc2cc(-c3ncc4cc([C@]5(O)C[C@@H](C(F)(F)F)C5)sc4n3)cnc21` [Compound C95C, cis-1-(2-(3-methyl-3H-[1,2,3]triazolo[4,5-b]pyridin-6-yl)thieno[2,3-d]pyrimidin-6-yl)-3-(trifluoromethyl)cyclobutanol], for which the IC50 in assay [1] came out at 1.26 nM; at 15-PGDH in A549 cells, 9.76 nM.

As to `Cn1cc2cc(-c3ccc4cc([C@H](O)[C@@H]5CCC5(F)F)sc4n3)cnc2n1` (single isomer, unassigned) [Compound B94RS], the half-inhibitory concentration (IC50) was 0.325 nM in assay [1] and 0.657 nM on 15-PGDH in A549 cells.

In the case of `Cn1cc2cc(-c3ccc4cc([C@@H](O)[C@@H]5CCC5(F)F)sc4n3)cnc2n1` (single isomer, unassigned) [Compound B94SS], the IC50 worked out at 1.23 nM in assay [1] and 3.63 nM at 15-PGDH in A549 cells.

`Cn1cc2cc(-c3ncc4cc(C5(O)CC6(CC6)C5)sc4n3)cnc2n1` [Compound C107, 5-(2-(2-methyl-2H-pyrazolo[3,4-b]pyridin-5-yl)thieno[2,3-d]pyrimidin-6-yl)spiro[2.3]hexan-5-ol]: the IC50 in assay [1] amounted to 0.49 nM; on 15-PGDH in A549 cells, 0.989 nM.

Regarding `Cn1cc2cc(-c3ccc4cc([C@]5(O)C[C@H](F)C5)sc4n3)cnc2n1` [Compound C40T, trans-3-fluoro-1-(6-(2-methyl-2H-pyrazolo[3,4-b]pyridin-5-yl)thieno[2,3-b]pyridin-2-yl)cyclobutanol], the IC50 in assay [1] turned out to be 6.58 nM; on 15-PGDH in A549 cells it was 3.36 nM.

`CO[C@]1(C)C[C@](O)(c2nc3ccc(-c4cnc5nn(C)cc5c4)nc3s2)C1` (single isomer, unassigned) [Compound C125T, trans-3-methoxy-3-methyl-1-(5-(2-methyl-2H-pyrazolo[3,4-b]pyridin-5-yl)[1,3]thiazolo[5,4-b]pyridin-2-yl)cyclobutanol]: the IC50 in assay [1] is 0.75 nM; at 15-PGDH in A549 cells it was 5.42 nM.

Turning to `Cc1nc2ccc(-c3ccc4cc(C5(O)CC(F)(F)C5)sc4n3)cc2o1` [Compound C39, 3,3-difluoro-1-(6-(2-methyl-1,3-benzoxazol-6-yl)thieno[2,3-b]pyridin-2-yl)cyclobutanol], the IC50 turned out to be 10 nM in assay [1] and 2.87 nM at 15-PGDH in A549 cells.

As to `Cn1cc2cc(-c3ccc4cc(C(O)C5CC(F)(F)C5)sc4n3)cnc2n1` (stereo not shown) [Compound B30, (3,3-difluorocyclobutyl)(6-(2-methyl-2H-pyrazolo[3,4-b]pyridine-5-yl)thieno[2,3-b]pyridine-2-yl)methanol], the IC50 is 0.26 nM in assay [1] and 0.795 nM at 15-PGDH in A549 cells.

Regarding `Cn1cc2cc(-c3ccc4cc([C@H](O)C5(C)CC(F)(F)C5)sc4n3)cnc2n1` (single isomer, unassigned) [Compound B86R], the IC50 was found to be 0.504 nM in assay [1] and 0.499 nM on 15-PGDH in A549 cells.

With `Cn1cc2cc(-c3ccc4cc([C@@H](O)C5CC(F)(F)C5)ccc4n3)cnc2n1` (single isomer, unassigned) [Compound D7S], the figures for the IC50 (in assay [1]; at 15-PGDH in A549 cells) were 265 nM and 168 nM, respectively.

Consider `Cn1cc2cc(-c3ccc4cc([C@@H](O)[C@H]5CC5(F)F)sc4n3)cnc2n1` (single isomer, unassigned) [Compound B85SR], for which the IC50 in assay [1] turned out to be 1.22 nM; at 15-PGDH in A549 cells, 1.5 nM.
